Consider 125 molecules from a melting point compilation (Tetko et al.).

In the case of `COC(=O)CS(N)(=O)=O`, the melting point (as a rule, the temperature, or range, at which the solid turns liquid) lay within 57 to 59 °C.
Turning to `CNS(=O)(=O)Cc1ccc(C#N)cc1`, the melting point is 154 to 158 °C.
Molecule `O=C(O)CCc1cc(Br)cs1` returned a melting point of 76 to 78 °C.
Molecule `NC(=O)CCc1ccc([N+](=O)[O-])cc1[N+](=O)[O-]` yielded a melting point of 115 to 117 °C.
As to `NC(=O)c1ccc(-n2cccc2)cc1`, the melting point fell in the range of 237 to 239 °C.
`O=C(O)CCS(=O)(=O)c1ccc2c(c1)CCC2` returned a melting point of 124 to 126 °C.
Molecule `O=C(O)CN(Cc1ccccc1)Cc1ccccc1` displayed a melting point of 195 to 197 °C.
`Cc1ccccc1NC(=O)CCl`: the melting point fell in the range of 75 to 77 °C.
In turn, `CNC(CO)c1ccc(OC)cc1` (stereo not given) had a melting point of 57 to 59 °C.
In the case of `CC(c1cc(Cl)ccc1Cl)n1nccc1N` (stereo not given) it was 94 to 96 °C; in that of `ClCc1nc(-c2cccnc2)no1`, 87 to 89 °C.
With `CC(C)(C)NS(=O)(=O)CC(=O)O` the figure was 93 to 95 °C; with `Cc1n[nH]c(C)c1S(=O)(=O)N1CCC(=O)CC1`, 191 to 193 °C.
In the case of `COc1ccc(Oc2ncccc2N)cc1` it was 149 to 151 °C.
In the case of `Cc1cc(C(=O)O)nn1C(F)F`, the melting point was in the range of 175 to 177 °C.
Molecule `NC(=S)c1ccc(NC(=O)C2CC2)cc1` gave a melting point of 179 to 181 °C.
As to `CCOC(=O)CNc1cc(Cl)cc(Cl)c1`, the melting point fell in the range of 99 to 101 °C.
In the case of `NC(=O)Cn1c(S)nnc1-c1ccco1` it was 313 to 315 °C.
In turn, `O=C(NC1CCCCCC1)c1ccco1` yielded a melting point of 99 to 101 °C.
In turn, `CCCOc1ccc(NS(C)(=O)=O)cc1` showed a melting point of 118 to 120 °C.
`NC(=O)Cc1csc(-c2ccco2)n1`: the melting point lay in the range of 125 to 127 °C.
With `CCNc1nc(C)c(C(=O)O)s1` the figure was 171 to 173 °C; with `Cc1ccc(C(=O)O)c(O)c1O`, 204 to 206 °C.
With `CC(C)(C)NCCS(C)(=O)=O` the figure was 39 to 41 °C; with `CN1CCN(C(=O)C2CCCNC2)CC1` (stereo not given), 85 to 87 °C; with `Nc1cncc(Cl)c1Cl`, 97 to 99 °C.
In the case of `CCCN(CCC)C(=O)c1ccc(N)cc1` it was 81 to 83 °C; in that of `Cc1cc(S(=O)(=O)Cl)ccc1[N+](=O)[O-]`, 48 to 50 °C; in that of `Cc1nc2ccccc2c(=O)n1-c1ccc(F)cc1`, 134 to 136 °C.
The molecule `COc1ccccc1-c1nnc(S)n1N` returned a melting point of 210 to 220 °C.
In the case of `OC(CCl)CNCc1ccccc1` (stereo not given) it was 63 to 65 °C; in that of `NS(=O)(=O)C1CCCC1`, 76 to 78 °C.
With `O=C(O)C1CCN(C(=O)CCOc2ccccc2)CC1` the figure was 127 to 129 °C; with `COc1cc(C=O)c(Br)cc1O`, 175 to 177 °C; with `CCOC(=O)Nc1ccc2c(CCl)cc(=O)oc2c1`, 247 to 249 °C.
In turn, `N#Cc1c[nH]c(C(=O)O)c1` yielded a melting point of 256 to 258 °C.
Molecule `Nc1ccc(S(=O)(=O)C(F)(F)F)cc1N` had a melting point of 109 to 111 °C.
In the case of `Nc1ccc(N2CCSCC2)cc1C(=O)O` it was 176 to 178 °C.
With `Cc1ccc(C(=O)Cc2ccccn2)cc1` the figure was 73 to 75 °C.
Molecule `CC(C)CC(C)(N)C(N)=O` (stereo not given) came in with a melting point of 71 to 73 °C.
With `O=C(O)c1cccc(-n2cc(Br)cn2)c1` the figure was 195 to 197 °C; with `N#Cc1cc(C=O)ccc1F`, 80 to 84 °C.
With `Cc1nn(CCO)c(C(F)(F)F)c1C(=O)O` the figure was 151 to 153 °C.
`COC(=O)C(C)NC(=O)c1ccc(Cl)c([N+](=O)[O-])c1` (stereo not given) showed a melting point of 102 to 104 °C.
`C1Cc2nnc(C3CCNCC3)n2C1`: the melting point lay within 126 to 128 °C.
In the case of `O=C(O)C=CC(=O)Nc1ccc(F)c(Cl)c1` it was 189 to 191 °C; in that of `N#Cc1n[nH]c2ccc(Cl)cc12`, 210 to 212 °C; in that of `Cc1cccc(COc2cccc(C(=O)O)c2)c1`, 124 to 126 °C.
`CN(C)C(=O)c1ccc(Cl)nc1`: the melting point is 67 to 69 °C.
Molecule `CC(=O)c1cc2ccccc2[nH]1` registered a melting point of 149 to 151 °C.
With `CC(=O)c1cnc2cc(C)nn2c1C` the figure was 144 to 146 °C; with `CCc1c(C(=O)O)cnn1C`, 144 to 146 °C.
As to `CSCc1nnc(S)o1`, the melting point was in the range of 71 to 73 °C.
In the case of `CCCNC(=S)NN` it was 61 to 63 °C; in that of `O=C1C=CC=NC1=C(O)Nc1ccncc1`, 164 to 166 °C; in that of `O=C(CCl)NC(=O)Nc1ccccc1`, 161 to 163 °C.
The molecule `Cc1nc2ccccc2n1C(C(=O)O)C(C)C` (stereo not given) registered a melting point of 119 to 121 °C.
`COCc1csc(N)n1` returned a melting point of 109 to 111 °C.
On to `NNC(=O)Cc1cn2ccsc2n1`, for which the melting point fell in the range of 97 to 101 °C.
In the case of `Nc1nnc(Cc2ccccc2F)o1` it was 167 to 169 °C; in that of `CC(C)(C)S(=O)(=O)Cc1ccc(N)cc1`, 211 to 213 °C.
In the case of `COCC(C)NC(N)=O` (stereo not given) it was 73 to 75 °C; in that of `CC(Cl)c1nc2ccccc2c(=O)[nH]1` (stereo not given), 250 to 252 °C; in that of `CCOC(=O)c1ccc(N2C(=O)Cc3ccccc3C2=O)cc1`, 174 to 176 °C.
In the case of `Cc1sc2nc(CCCC(=O)O)[nH]c(=O)c2c1C` it was 243 to 245 °C; in that of `O=C1Cc2ncccc2N1`, 189 to 191 °C; in that of `NC(=NO)c1cccc(CN2CCCCC2)c1`, 153 to 155 °C.
Consider `Cc1ccccc1COc1c(C)cc(C=O)cc1C`, for which the melting point was 62 to 64 °C.
In the case of `N#CCC(=O)N1CCS(=O)(=O)CC1` it was 157 to 159 °C.
With `CC(C)c1cccc(C(C)C)c1NCCO` the figure was 72 to 74 °C.
In the case of `Nc1cc(CCc2ccccc2)[nH]n1` it was 58 to 60 °C; in that of `O=C(Nc1cc[nH]n1)c1ccccc1`, 161 to 163 °C; in that of `Cc1cccn2c(C=O)cnc12`, 83 to 85 °C.
In turn, `CC(C)(O)c1cn(-c2ccccc2)nn1` returned a melting point of 89 to 91 °C.
In turn, `Cc1[nH]n(-c2ccc(Br)cc2)c(=N)c1C` returned a melting point of 131 to 133 °C.
Turning to `Cn1c(-c2ccccc2)cc2cc[nH]c(=O)c21`, the melting point lay in the range of 201 to 203 °C.
`O=c1[nH]c2ccccc2n2cncc12` had a melting point of 349 to 351 °C.
With `O=C(O)c1cc(-c2cccc(Cl)c2)no1` the figure was 182 to 184 °C.
As to `CCOC(=O)CNc1ccccc1-c1ccccc1`, the melting point was in the range of 53 to 55 °C.
As for `COc1cc(Br)c(F)cc1S(=O)(=O)Cl`, the melting point was in the range of 79 to 81 °C.
`CC1CC(=O)NC(=O)C1` yielded a melting point of 144 to 146 °C.
On to `O=C(O)C=Cc1ccccc1OCc1cccc(Br)c1`, for which the melting point was 148 to 150 °C.
In the case of `CCOC(=O)Nc1snc(C)c1C(C)=O`, the melting point lay within 80 to 82 °C.
In the case of `Nc1ccc(F)cc1-c1ccc(Cl)cc1`, the melting point is 54 to 56 °C.
Take `Cc1ccc([N+](=O)[O-])c(C)c1S(=O)(=O)Cl`: the melting point was in the range of 62 to 64 °C.
In turn, `CCCCCNCC(N)=O` registered a melting point of 64 to 66 °C.
In the case of `N#Cc1cc(F)ccc1S(=O)(=O)Cl` it was 64 to 66 °C.
In the case of `O=C(O)c1cc([N+](=O)[O-])c(F)c([N+](=O)[O-])c1` it was 237 to 239 °C.
Regarding `CC(C)(C)NS(=O)(=O)c1cc(N)c(F)cc1F`, the melting point fell in the range of 109 to 111 °C.
In the case of `CC(C)(C)CNC(=O)c1ccc(C(=O)O)cn1` it was 239 to 241 °C.
As for `COC(=O)COc1ccc2cc(Br)ccc2c1`, the melting point fell in the range of 109 to 111 °C.
In the case of `O=C(CCCl)N1CCN(c2ccccn2)CC1` it was 97 to 99 °C; in that of `Cc1cccc(-n2ncc(C(=O)O)n2)c1`, 131 to 133 °C.
As for `CNS(=O)(=O)c1c(C)noc1C`, the melting point fell in the range of 70 to 72 °C.
In the case of `O=C(O)C1CC=CCC1C(=O)N1CCCC1` (stereo not given) it was 116 to 118 °C; in that of `NCC(=O)N1CCN(c2ccccc2)CC1`, 69 to 71 °C.
In the case of `CCN1CCCC1CNC(=O)C1CCNCC1` (stereo not given) it was 191 to 194 °C; in that of `CCN(CC)S(=O)(=O)c1cc(C(=O)O)ccc1F`, 159 to 161 °C; in that of `O=C(CCl)NC(=O)Nc1ccc2c(c1)OCCO2`, 128 to 130 °C.
In the case of `COC(=O)c1ccc(N)c(F)c1` it was 111 to 113 °C; in that of `NNC(=O)CC(F)(F)F`, 90 to 92 °C; in that of `O=C1CSC(C(F)(F)F)O1` (stereo not given), 65 to 67 °C.
As to `CCc1ccc(-c2nn[nH]n2)cc1`, the melting point was 237 to 239 °C.
With `Nc1cccnc1Oc1ccccc1` the figure was 107 to 109 °C; with `Cc1ccc(C)c(-n2nnnc2SCC(=O)O)c1`, 157 to 159 °C.
`COc1ccc(NS(=O)(=O)c2cc(N)ccc2N2CCCCC2)cc1` yielded a melting point of 145 to 154 °C.
In turn, `CC(C)(C)C(=O)C(Cl)Cl` returned a melting point of 50 to 52 °C.
In the case of `O=c1c(Cl)c(Cl)cnn1-c1cccc(C(F)(F)F)c1` it was 92 to 94 °C; in that of `Nc1ccccc1CN1CCNC1=O`, 142 to 144 °C.
With `Cc1nc(CO)c(C)s1` the figure was 44 to 46 °C.
In the case of `Cn1ccc(NC(=O)CC#N)n1` it was 159 to 161 °C; in that of `Fc1ccccc1-n1cnnc1S`, 167 to 169 °C.
In the case of `CCOC(=O)c1cnc(N2CCNCC2)s1`, the melting point is 73 to 75 °C.
In turn, `CC(C)(C(=O)O)c1ccc(Br)cc1` yielded a melting point of 123 to 125 °C.
Take `Cc1[nH]cnc1CO`: the melting point lay in the range of 233 to 235 °C.
In the case of `N#CCCN1C(=O)c2ccccc2C1=O` it was 153 to 155 °C.
With `O=C(O)c1cc(Cl)nc(Cl)n1` the figure was 114 to 116 °C.
Consider `Nn1cnc2ccccc21`, for which the melting point was 147 to 149 °C.
Molecule `O=C(O)CSCc1ccc(Br)cc1F` had a melting point of 57 to 59 °C.
Regarding `NS(=O)(=O)c1c[nH]c(=O)[nH]c1=O`, the melting point lay in the range of 299 to 301 °C.
With `O=C(O)c1ccccc1NCCC1=CCCCC1` the figure was 129 to 131 °C; with `Nc1ccc2c(c1)CCO2`, 71 to 73 °C; with `Nc1cnn(-c2cnc3ccccc3n2)c1`, 169 to 171 °C.
The molecule `Nc1ccc(NC(=O)C2CC2)cc1C(F)(F)F` showed a melting point of 145 to 147 °C.
In the case of `O=C(O)c1ccc(OCC2CC2)cc1` it was 254 to 256 °C.
